How the values were obtained:
Assay type in all cases: biochemical
[1] = target: T1, tau isoform 2N4R (Homo sapiens, UniProt P10636); assay: ThT kinetics of tau isoform 2N4R fibril formation
T1 construct: made in house; host or cells: E. coli BL21(DE3)
Experimental: The bacterial expression plasmid consisting of the vector pRK172 carrying a cDNA encoding the human Tau 2N4R isoform was obtained from Dr. David Eliezer (Weill Cornell Medicine, New York, NJ). For protein expression, E. coli BL21(DE3) cells were transformed with the plasmid and grown in LB media supplemented with ampicillin (100 μg/mL). Protein over-expression was induced by the addition of 1 mM IPTG for 4 hours at 37° C., and cells were pelleted by centrifugation at 6,000 g for 15 minutes at 4° C. The cells were resuspended in lysis buffer (20 mM MES, 400 mM NaCl, 0.2 mM MgCl2, 1 mM EGTA, protease inhibitor cocktail (P8340, Sigma Aldrich), 0.25 mg/mL lysozyme, and 1 μg/mL DNase 1, pH 6.8) and lysed by a French press cell disruptor at 4° C., after which the lysate was boiled for 20 minutes. Denatured proteins were pelleted by centrifugation at 30,000 g for 30 minutes at 4° C., and the supernatant was dialyzed overnight against cation exchange buffer (20 mM MES, 50 mM NaCl, 1 mM MgCl2, 1 mM EGTA, 2 mM DTT, 0.1 mM PMSF, pH 6.8). The dialysate was loaded onto a HiPrep SP HP column, and proteins were eluted with a linear gradient ranging from 50 mM to 1 M NaCl. Fractions containing tau isoform 2N4R were pooled, and the resulting protein solution was dialyzed against PBS (pH 7.4) and stored at −80° C.
(§1) Compounds with the highest anti-fibrillary activity were tested at 3.125, 6.25, 12.5, 25, 50, and 100 μM to obtain dose-response curves with prepared α-syn and 2N4R tau at 6.25 μM and 6 μM, respectively. Compounds were tested with α-syn using a previously published procedure. Concerning the tau (isoform 2N4R) kinetics of fibril formation, measurements of ThT fluorescence were performed with a solution of the protein diluted to a final concentration of 6 μM in PBS (pH 7.4) supplemented with 1.5 μM heparin, 20 μM ThT, 2.5 mM DTT, and 100 μM compound. Aliquots of the diluted protein solution (100 μL each) were pipetted into the wells of a 96-well plate, and a Teflon ball was added to each well. The plate was incubated at 37° C. with constant shaking at 1,000 rpm in a Tecan Spark plate reader. ThT fluorescence was measured every 15 minutes with excitation and emission wavelengths of 440 nm and 480 nm, and the data were plotted using GraphPad Prism.

[2] = target: T2, Aβ1-42 (Homo sapiens, UniProt P05067); assay: ThT fluorescence assay of Aβ1-42 fibril formation; conditions: screen on prone-to-aggregate proteins (FIG. 2A, FIG. 4A); Aβ 7 μM
T2 construct: α-syn, Aβ1-40, Aβ1-42 were procured from rPeptide; purchased rPeptide
T2 sequence (P05067 672-713 limits assumed): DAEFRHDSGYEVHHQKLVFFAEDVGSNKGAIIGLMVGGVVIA
Experimental: (§2) Thioflavin-T (ThT) fluorescence assays. Thioflavin-T (ThT) fluorescence assays were used to monitor fibril formation of recombinant Ap (fragments 1-40 and 1-42), recombinant α-syn, recombinant tau isoform 2N4R, synthetic IAPP, and synthetic TTR peptides treated with BTA and its derivatives. The IAPP ThT assay was performed in 10 mM PBS (pH 7.4) at a final concentration of 10 μM for both IAPP and ThT as published previously. Aβ fragments 1-40 and 1-42 were tested at 7 μM in 10 mM of PBS using ThT at a final concentration of 20 μM. Kinetics of α-syn fibrillization were performed as published previously.^36-37 TTR fragment kinetics of fibril formation were assessed at 10 μM in 100 mM sodium acetate buffer supplemented with 100 mM KCl and 1 mM ethylenediaminetetraacetic acid (EDTA) (pH 4) with 20 μM ThT. The fluorescence emission experiments were performed with the excitation and emission wavelengths set at 440 and 485 nm, respectively, with a Synergy HT multi-mode microplate reader (BioTek, Winooski, VT). Samples were measured in three replicates, and the experiments were repeated three times using at least two different stock solutions. For each time point, arbitrary units of fluorescence were calculated from the mean values normalized against the maximum value in each completed assay. The lag time for each condition was calculated as previously described. All results contained in histograms were presented as mean±SEM. Data were analyzed by the one-way analysis of variance with Dunnett's multiple comparisons between controls and compounds. Differences were considered statistically significant at p<0.05.

[3] = target: T3, TTR101-125 (Homo sapiens, UniProt P02766); assay: ThT fluorescence assay of TTR101-125 fibril formation; conditions: screen on prone-to-aggregate proteins (FIG. 4A)
T3 construct: TTR fragments 1-25, 26-50, 51-75, 76-100, 81-105, 101-125, and 101-125 were obtained from GenScript; purchased GenScript; host or cells: synthetic peptide
Experimental: as §2

[4] = target: T4, transthyretin fragment peptide (TTR81-127) (Homo sapiens, UniProt P02766); assay: ThT fluorescence assay of TTR81-127 fibril formation; conditions: compounds at 100 μM, TTR81-127 10 μM, control 0.25% DMSO
T4 construct: TTR fragment 81-127 was obtained from AnaSpec; purchased AnaSpec; host or cells: synthetic peptide
Experimental: as §2

[5] = target: T5, α-synuclein (α-syn) (Homo sapiens, UniProt P37840); assay: Thioflavin-T (ThT) fluorescence assay of α-syn fibril formation
T5 construct: purchased rPeptide
Experimental: as §2, §1

T1 sequence (P10636 1-441 isoform P10636-8): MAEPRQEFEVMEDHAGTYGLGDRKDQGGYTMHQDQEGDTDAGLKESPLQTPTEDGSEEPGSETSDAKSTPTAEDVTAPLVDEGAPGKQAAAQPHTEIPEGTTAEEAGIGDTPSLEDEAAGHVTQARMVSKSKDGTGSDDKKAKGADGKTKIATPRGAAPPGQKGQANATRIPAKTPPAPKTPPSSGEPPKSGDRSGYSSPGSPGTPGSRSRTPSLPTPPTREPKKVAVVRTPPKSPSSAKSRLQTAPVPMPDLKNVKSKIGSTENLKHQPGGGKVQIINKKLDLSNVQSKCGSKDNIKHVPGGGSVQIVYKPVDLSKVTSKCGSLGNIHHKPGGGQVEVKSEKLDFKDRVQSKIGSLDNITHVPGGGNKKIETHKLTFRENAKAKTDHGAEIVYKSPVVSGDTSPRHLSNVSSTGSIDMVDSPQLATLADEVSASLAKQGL

## Nc1nsc2ccc([N+](=O)[O-])cc12 [A, 5-nitro-1,2-benzothiazol-3-amine]
[1]; 3.125-100 μM, at 15 hours
  tau isoform 2N4R fibrillization (ThT), dose response: protein fibrillization was reduced
[1]; tau 6 μM, compound 100 μM
  lag time of tau isoform 2N4R fibril formation: delayed the lag time
  production of tau isoform 2N4R fibrils (ThT kinetic aggregation curves): demonstrating the best anti-fibrillary activity
[2]
  thioflavin T fluorescence intensity, Aβ1-42: 27.5±4%
[3]
  thioflavin T fluorescence intensity, TTR101-125: significantly more effective at preventing the aggregation
[4]
  ThT TTR81-127 (%), maximum thioflavin T (ThT) intensity in percentage: 54.7 ± 1.4%
[4]; read-out: ThT TTR81-127 (%), maximum thioflavin T (ThT) intensity in percentage
  remaining activity at 100 µM: 54.7 ± 1.4%
[5]; 3.125-100 μM, plateau phase
  α-syn fibrillization (ThT), dose response: protein fibrillization was reduced
[5]; compounds at 100 μM, α-syn 6.25 μM, control 0.25% DMSO, read-out: ThT a-Syn (%), maximum thioflavin T (ThT) intensity in percentage
  remaining activity at 100 µM: 36.2 ± 3.1%
[5]; screen on prone-to-aggregate proteins (FIG. 2A, FIG. 4A)
  thioflavin T fluorescence intensity, α-syn: significantly more effective at preventing the aggregation

Reference: patent US20260224538A1 (Purdue Research Foundation, priority 2023, published 2026)
